| melting point | SMILES |
| --- | --- |
| 120 to 122 °C | O=C(Nc1cccnc1Cl)N1CCc2ccccc2CC1 [Example 6, N-[2-Chloropyridin-3-yl]-1,2,4,5-tetrahydro-3H-3-benzazepine-3-carboxamide] |
| 208 to 209 °C | Cc1cc(Oc2ccc(NC(=O)N3CCc4ccccc4CC3)cn2)cc(C)c1Cl [Example 16, N-[6-(4-Chloro-3,5-dimethylphenoxy)pyridin-3-yl]-1,2,4,5-tetrahydro-3H-3-benzazepine-3-carboxamide] |
| 128 to 132 °C | O=C(N[C@@H]1CN2CCC1CC2)N1CCc2ccccc2CC1 |
| 170 to 172 °C | O=C(Nc1ccc(Oc2ccccc2F)nc1)N1CCc2ccccc2CC1 [Example 11, N-[6-(2-Fluorophenoxy)pyridin-3-yl]-1,2,4,5-tetrahydro-3H-3-benzazepine-3-carboxamide] |
| 101 °C (dec.) | Cc1ncccc1Oc1ccc(NC(=O)N2CCc3ccc(-n4c(C)ccc4C)cc3CC2)cn1 [Example 2, 7-(2,5-Dimethyl-1H-pyrrol-1-yl)-N-{6-[(2-methylpyridin-3-yl)oxy]pyridin-3-yl}-1,2,4,5-tetrahydro-3H-3-benzazepine-3-carboxamide] |
| 170 to 172 °C | O=C(Nc1ccc(Cl)nc1)N1CCc2ccccc2CC1 [Example 7, N-(6-chloropyridin-3-yl)-1,2,4,5-tetrahydro-3H-3-benzazepine-3-carboxamide] |
| 214 to 216 °C | O=C(NC1CCCNC1)N1CCc2ccccc2CC1 (stereo not shown) [Example 17, N-Piperidin-3-yl-1,2,4,5-tetrahydro-3H-3-benzazepine-3-carboxamide] |
| 156 to 157 °C | COc1ccc(Oc2ccc(NC(=O)N3CCc4ccccc4CC3)cn2)cc1 [Example 9, N-[6-(4-Methoxyphenoxy)pyridin-3-yl]-1,2,4,5-tetrahydro-3H-3-benzazepine-3-carboxamide] |
| > 120 °C (dec.) | O=C(NC1CN2CCC1CC2)N1CCc2ccccc2CC1 (stereo not shown) |
| 171 to 173 °C | Cc1cc(Oc2ccc(NC(=O)N3CCc4ccccc4CC3)cn2)ccc1Cl [Example 14, N-[6-(3-Methyl-4-chlorophenoxy)pyridin-3-yl]-1,2,4,5-tetrahydro-3H-3-benzazepine-3-carboxamide] |
| 144 to 146 °C | O=C(Nc1cccnc1)N1CCc2ccccc2CC1 [Example 5, 1,2,4,5-Tetrahydro-benzo[d]azepine-3-carboxylic acid pyridin-3-ylamide] |
| 171 to 173 °C | Cc1ncccc1Oc1ccc(NC(=O)N2CCc3ccccc3CC2)cn1 [Example 1, N-{6-[(2-methylpyridin-3-yl)oxy]pyridin-3-yl}-1,2,4,5-tetrahydro-3H-3-benzazepine-3-carboxamide] |
| 135 to 137 °C | O=C(Nc1ccc(Oc2ccc(Cl)cc2)nc1)N1CCc2ccccc2CC1 [Example 10, N-[6-(4-Chlorophenoxy)pyridin-3-yl]-1,2,4,5-tetrahydro-3H-3-benzazepine-3-carboxamide] |
| 151 to 153 °C | Cc1cc(Cl)ccc1Oc1ccc(NC(=O)N2CCc3ccccc3CC2)cn1 [Example 13, N-[6-(2-Methyl-4-chlorophenoxy)pyridin-3-yl]-1,2,4,5-tetrahydro-3H-3-benzazepine-3-carboxamide] |
| 149 to 152 °C | CC(C)Oc1ccccc1Oc1ccc(NC(=O)N2CCc3ccccc3CC2)cn1 [Example 12, N-[6-(2-isopropoxyphenoxy)pyridin-3-yl]-1,2,4,5-tetrahydro-3H-3-benzazepine-3-carboxamide] |
| 154 to 155 °C | O=C(Nc1ccc(Oc2ccc(Cl)cc2Cl)nc1)N1CCc2ccccc2CC1 [Example 15, N-[6-(2,4-Dichlorophenoxy)pyridin-3-yl]-1,2,4,5-tetrahydro-3H-3-benzazepine-3-carboxamide] |

— US6861420B2, “N-substituted 1,2,4,5-tetrahydro-1H-benzo[d]azepine compounds” (Pharmacia & Upjohn Company, priority 2001, dated 2005)
